Measured values taken from US9822157B2 (priority 2013, dated 2017).
Like-named read-outs stand apart in the source and are kept apart here. * marks the point of attachment. Palmitoyl = CCCCCCCCCCCCCCCC(=O)*

Key:
human ferroportin = target: T1, human ferroportin (Homo sapiens, UniProt Q9NP59); type: cell-based; settings: for % Activity At 1 uM: at 1 uM peptide, monomers and disulphide-linked dimers
T1 sequence (Q9NP59 1-571): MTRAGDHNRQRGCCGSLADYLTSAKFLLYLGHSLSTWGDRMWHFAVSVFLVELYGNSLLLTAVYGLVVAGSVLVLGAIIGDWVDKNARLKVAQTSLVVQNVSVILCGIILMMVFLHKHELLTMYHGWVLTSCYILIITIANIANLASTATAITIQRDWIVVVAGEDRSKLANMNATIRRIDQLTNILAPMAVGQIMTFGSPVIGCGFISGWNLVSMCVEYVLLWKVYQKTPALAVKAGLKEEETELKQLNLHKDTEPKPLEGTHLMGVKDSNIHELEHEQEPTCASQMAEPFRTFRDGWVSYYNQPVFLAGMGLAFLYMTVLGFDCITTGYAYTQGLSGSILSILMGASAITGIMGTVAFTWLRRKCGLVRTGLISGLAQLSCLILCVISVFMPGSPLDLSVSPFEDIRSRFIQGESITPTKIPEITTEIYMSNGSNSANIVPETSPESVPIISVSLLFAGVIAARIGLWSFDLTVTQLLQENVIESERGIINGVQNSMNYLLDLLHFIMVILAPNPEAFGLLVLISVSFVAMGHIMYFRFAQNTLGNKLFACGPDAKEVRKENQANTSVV
From the text: The cDNA encoding the human ferroportin (SLC40A1) was cloned from a cDNA clone from Origene (NM_014585). The DNA encoding the ferroportin was amplified by PCR using primers also encoding terminal restriction sites for subcloning, but without the termination codon. The ferroportin receptor was subcloned into a mammalian GFP expression vector containing a neomycin (G418) resistance marker in such that the reading frame of the ferroportin was fused in frame with the GFP protein. The fidelity of the DNA encoding the protein was confirmed by DNA sequencing. HEK293 cells were used for transfection of the ferroportin-GFP receptor expression plasmid. The cells were grown according to standard protocol in growth medium and transfected with the plasmids using Lipofectamine (manufacturer's protocol, Invitrogen). […] The cells were propagated and frozen in aliquots.
A retro inverse peptide is a peptide with a reversed sequence in all D amino acids. […] The EC50 of these reference compounds for ferroportin degradation was determined according to the activity assay described above.

serum iron = test: In vivo serum iron reduction in mice; parameters: species or system mice (C57-BL6); settings: tested in rats or in mice
Experimental: Instead of rats, mice (C57-BL6) were tested.
A similar experiment was performed with lower doses to assess the dose response of these compounds for inducing serum iron reduction. Methods were as described above in this Example, except for the following parameters: n=4 mice/group, however n=8 for the vehicle, as two groups were pooled. Mice were administered test compounds at two separate dosages (300 nmol/kg or 1000 nmol/kg), via subcutaneous injection. Serum iron levels were assessed as in Example 8 two hours after peptide or vehicle injection. […] Moreover, it was clear that several of the compounds were able to induce maximum effects at dosages as low as 300 nmol/kg.
The route of peptide administration was via subcutaneous injection, unless otherwise indicated as having been via intraperitoneal injection (this is noted on the table by “i.p.” in parentheses following the “yes” or “no” determination).
The peptides were also tested for other pharmacokinetic/pharmacodynamic (PK/PD) parameters using methods commonly know by the skilled artisan. These parameters included determinations regarding stability (hours stable in plasma from the indicated human or rat subject), half-life in mice, and in vitro activity (EC50), tested as described in Example 2.

[1] = Hepcidin analog peptides, read-out: Potency EC50
[2] = read-out: EC50 (nM) (n = 3), in vitro activity as in Example 2, peptide monomers and dimers dimerized through a single disulphide linkage, n = 3

Question: How did the EC50 (human ferroportin; [1]) turn out when “H-HFPCIIFGPRSKGWVCM-NH2 (cysteine pairing not given here) [Compound 133]” was run?
Answer: > 1000 nM

Question: For “H-THFPCIIFGPRSKGWVCK-NH2 (cysteine pairing not given here) [Compound 97]”, which “Potency EC50 (nM)” value (human ferroportin; Hepcidin analog peptides) is on record?
Answer: Inactive

Question: How did the EC50 (human ferroportin; [1]) turn out when “H-THFPCIIFGPRSKGWVCM-NH2 (cysteine pairing not given here) [Compound 132]” was run?
Answer: > 1000 nM

Question: Which EC50 (human ferroportin; [1]) does the source give for “H-VDTHFPCIKFGPRSKGWVCK-NH2 (cysteine pairing not given here) [Compound 164]” here?
Answer: 146 nM

Question: For “Hy-DTHF-(D)--Ala-CIIF-NH2 [Compound 281]”, which “Potency EC50 (nM)” value (human ferroportin; Hepcidin analog peptides) is on record?
Answer: Inactive

Question: What about the “EC50 (nM) (n > 3)” value (human ferroportin; alanine scan of Compound 1) of the same substance?
Answer: Not active

Question: Which “Potency EC50 (nM)” value (human ferroportin; Hepcidin analog peptides) does the source give for “Hy-DTHF-[Sarc]-CIIFGPRSKGWVCK-NH2 [Compound 127]” here?
Answer: Inactive

Question: “Hy-DTHF-[β-Ala]-CIIFGPRSKGWVCK-NH2 [Compound 129]” was tested. Which “Potency EC50 (nM)” value (human ferroportin; Hepcidin analog peptides) did it give?
Answer: Inactive

Question: Which “% Activity At 1 uM” value (human ferroportin) does the source give for Hy-DTHFPCIIF-NH2 [Compound 1] here?
Answer: 92%

Question: “Hy-DTHFPIC(1)IFC(2)C(3)GC(2)C(4)HRSKC(3)GMC(4)C(1)KT-OH [Hepcidin, reference compound]” was tested. Which “In Vivo Activity (s.c.) 300 nmol/kg” value (serum iron; 300 nmol/kg) did it give?
Answer: Yes

Question: And the “In Vivo Activity (s.c.) 1000 nmol/kg” value (serum iron; 1000 nmol/kg)?
Answer: Yes

Question: How did the “% Activity At 1 uM” value (human ferroportin) turn out when Hy-ETHFPCIIF-NH2 [Compound 300] was run?
Answer: 77%

Question: What about the EC50 (human ferroportin; [2]) of the same substance?
Answer: > 300 nM

Question: Which “% Activity At 1 uM” value (human ferroportin) does the source give for Hy-LTHFPCIIF-NH2 [Compound 299] here?
Answer: 64%

Question: What about the EC50 (human ferroportin; [2]) of the same substance?
Answer: > 300 nM

Question: How did the “Potency EC50 (nM)” value (human ferroportin; Hepcidin analog peptides) turn out when “Isovaleric acid-DTHAPCIKFEPRSKGWECK-NH2 [Compound 243]” was run?
Answer: Inactive

Question: With “Isovaleric acid-DTHFPAIIF-NH2 [Compound 289]” as the substance, how does the “Potency EC50 (nM)” value (human ferroportin; Hepcidin analog peptides) read?
Answer: Inactive

Question: How did the “In Vivo Activity (s.c.) 1000 nmol/kg” value (serum iron; 1000 nmol/kg) turn out when “Isovaleric acid-DTHFPCIEFGPRSKGWVCK-NH2 [Compound 15]” was run?
Answer: Minor

Question: With “Isovaleric acid-DTHFPCIIF-NH2 [Compound 288]” as the substance, how does the “% Activity At 1 uM” value (human ferroportin) read?
Answer: 100%

Question: For “Isovaleric acid-DTHFPCIIFEPRSKGWVCK-NH2 [Compound 105]”, which “In Vivo Activity (s.c.) 300 nmol/kg” value (serum iron; 300 nmol/kg) is on record?
Answer: Yes

Question: And the “In Vivo Activity (s.c.) 1000 nmol/kg” value (serum iron; 1000 nmol/kg)?
Answer: Yes

Question: Which “In Vivo Activity (s.c.) 1000 nmol/kg” value (serum iron; 1000 nmol/kg) does the source give for “Isovaleric acid-DTHFPCIIFGPRSKGCK-NH2 [Compound 115]” here?
Answer: No

Question: Which results are given for “Isovaleric acid-DTHFPCIIFGPRSRGWVCK-NH2 [Compound 3]”?
Answer: In Vivo Activity 300 nmol/kg (i.p.) (serum iron; 300 nmol/kg, i.p.): No (i.p.); In Vivo Activity 1000 nmol/kg (i.p.) (serum iron; 1000 nmol/kg, i.p.): No (i.p.)

Question: Which “In Vivo Activity (s.c.) 300 nmol/kg” value (serum iron; 300 nmol/kg) does the source give for “Isovaleric acid-DTHFPCIKF-K(PEG8)-PRSKGWVCK-NH2 [Compound 150]” here?
Answer: Yes

Question: Which “% Activity At 1 uM” value (human ferroportin) does the source give for “Isovaleric acid-DTHFPCIKF-NH2 [Compound 291]” here?
Answer: 100%

Question: How did the “In Vivo Activity (s.c.) 300 nmol/kg” value (serum iron; 300 nmol/kg) turn out when “Isovaleric acid-DTHFPCIKFEPRSKGCK-NH2 [Compound 184]” was run?
Answer: Yes

Question: What about the “In Vivo Activity (s.c.) 1000 nmol/kg” value (serum iron; 1000 nmol/kg) of the same substance?
Answer: Yes

Question: Which results are given for “Isovaleric acid-DTHFPCIKFGPRSKGWVCK-NH2 [Compound 9]”?
Answer: In Vivo Activity (s.c.) 300 nmol/kg (serum iron; 300 nmol/kg): Yes; In Vivo Activity (s.c.) 1000 nmol/kg (serum iron; 1000 nmol/kg): Yes

Question: How did the “In Vivo Activity (s.c.) 1000 nmol/kg” value (serum iron; 1000 nmol/kg) turn out when “Isovaleric acid-DTHFPCIQFGPRSKGWVCK-NH2 [Compound 10]” was run?
Answer: Minor

Question: Which “In Vivo Activity (s.c.) 300 nmol/kg” value (serum iron; 300 nmol/kg) does the source give for “Isovaleric acid-DTHFPICIFGPRS-K(PEG8)-GWVC-NH2 [Compound 176]” here?
Answer: Yes

Question: “Isovaleric acid-DTHFPSIIF-NH2 [Compound 290]” was tested. Which “Potency EC50 (nM)” value (human ferroportin; Hepcidin analog peptides) did it give?
Answer: Inactive

Question: How did the “Potency EC50 (nM)” value (human ferroportin; Hepcidin analog peptides) turn out when “Isovaleric acid-HFPCIIFGPRSKGWVCK-NH2 [Compound 100]” was run?
Answer: Inactive

Question: “Isovaleric acid-THFPCIIFGPRSKGWVCK-NH2 [Compound 98]” was tested. Which “Potency EC50 (nM)” value (human ferroportin; Hepcidin analog peptides) did it give?
Answer: Inactive

Question: With “Palmitoyl-DTHFPCIKFGPRSKGWVCK-NH2 (cysteine pairing not given here) [Compound 216]” as the substance, how does the EC50 (human ferroportin; [1]) read?
Answer: > 1000 nM
